Laboratory results taken from patent US9044427B2, “Compositions and methods for prevention and treatment of wounds” (ONCONOVA THERAPEUTICS, INC, priority 2010, dated 2015).
Values joined by “and” are separate entries in the source; they are usually repeats but may differ in a detail not shown here. Equal values may be shown once. “Also recorded” adds a separate entry of the source. Marks after values point to notes of the source that are not given here.

System: mouse model of cutaneous injury
Test: Wound healing in skin, mouse model of cutaneous injury (skin punch)
Assay type: in vivo
Details: for CT50 (Days), wound half-closure time, Mean: linear regression
Experimental: Test substance ON 01210.Na Solution was evaluated for possible effects on wound healing in a mouse model of cutaneous injury. The test substance was administered subcutaneously (SC) in two dosing regimens: the first was 24 hours and 15 minutes before skin punch, and the second was 4 hours and 15 minutes before skin punch. Percent closure of the wound (%) was determined on days 1, 3, 5, 7, 9, 11, 13, 15, 17, 19, 21 and 22, and the half closure time (CT50) was then obtained. One-way ANOVA followed by Dunnett's test was used to determine significant difference between vehicle control and treated groups at individual time points. Significant differences are considered at P<0.05 level.
ON 01210.Na Solution was provided by Onconova Therapeutics Inc in a preformulated form. Test substance was administered subcutaneously (SC) in two dosing patterns, the first was 24 hours and 15 minutes before skin punch, and the second was 4 hours and 15 minutes before skin punch. The dosing time of vehicle (ON 01210.Na Placebo Solution) was given as the second pattern. The dosing volume was 10 mL/kg.
Animals: Male ICR mice weighing 24±2 g were provided by BioLasco Taiwan (under Charles River Laboratories Technology Licensee). Test animals were housed individually in a cage (29×18×13 cm) after skin injury through experiment. All animals were maintained in a controlled temperature (21-23° C.) and humidity (50%-70%) environment with 12 hours light/dark cycles for at least three days in MDS Pharma Services—Taiwan Laboratory prior to use. Free access to standard lab chow for Mice [MF-18 (Oriental Yeast Co., Ltd., Japan)] and reverse osmosis (RO) water was granted. All aspects of this work including housing, experimentation and disposal of animals were performed in general accordance with the Guide for the Care and Use of Laboratory Animals (National Academy Press, Washington, D.C., 1996).
Groups of 8 ICR male mice weighing 24±2 g were used. During the study, the tested animals were housed in individual cages. Under hexobarbital (90 mg/kg, IP) anesthesia, the shoulder and back region of each animal was shaved. A sharp punch (ID 12 mm) was applied to remove the skin including panniculus carnosus and adherent tissues. Test substance was administered subcutaneously in two dosing patterns, the first was 24 hours and 15 minutes before skin punch, and the second was 4 hours and 15 minutes before skin punch the dosing time of vehicle (ON 01210.Na Placebo Solution) was given as the second dosing pattern. The wound area, traced onto clear plastic sheets, was measured by use of an Image—ProPlus (Media Cybernetics, Version 4.5.0.29) on days 1, 3, 5, 7, 9, 11, 13, 15, 17, 19, 21 and 22. The percent closure of the wound (%) was calculated, and wound half-closure time (CT50) was analyzed by linear regression using Graph-Prism (Graph Software USA). One-way ANOVA followed by Dunnett's test was applied for comparison between the treated and vehicle groups at each measurement time point. Differences are considered statistically significant at P<0.05.
Test substance was administered subcutaneously (SC) in two dosing patterns, the first was 24 hours and 15 minutes before skin punch, and the second was 4 hours and 15 minutes before skin punch; the dosing time of vehicle (ON 01210.Na Placebo Solution) was given as the second pattern. The wound closure (%) and wound half-closure time (CT50) were determined. One-way ANOVA followed by Dunnett's test was applied for comparison between the treated and vehicle groups. *P<0.05, vs. vehicle control.

[1] = 500 mg/kg × 2 SC (−4 hr, −15 min), individual surviving mice N 1-6, sodium salt
[2] = 500 mg/kg × 2 SC (−4 hr, −15 min), individual surviving mice N 1-6
[3] = 500 mg/kg × 2 SC (−4 hr, −15 min before skin punch), mean of surviving animals, sodium salt
[4] = 500 mg/kg × 2 SC (−4 hr, −15 min before skin punch), mean of surviving animals
[5] = 500 mg/kg × 2 SC (−24 hr, −15 min), individual mice N 1-8
[6] = 500 mg/kg × 2 SC (−24 hr, −15 min), individual mice N 1-8, sodium salt
[7] = 500 mg/kg × 2 SC (−24 hr, −15 min before skin punch), group mean
[8] = 500 mg/kg × 2 SC (−24 hr, −15 min before skin punch), group mean, sodium salt

How did the “Effect on wound closure vs vehicle control” value (500 mg/kg SC, 4 hr and 15 min before skin punch, surviving animals, P<0.05 vs vehicle) turn out when `O=C([O-])c1ccc(/C=C/S(=O)(=O)Cc2ccc(Cl)cc2)cc1.[Na+]` [ON 01210.Na Solution, (E)-4-carboxystyryl-4-chlorobenzylsulfone sodium salt] was run?
The value was “significant increase in wound closure on days 13 and 15”.

What about the “Effect on wound closure / wound healing vs vehicle control” value (500 mg/kg SC, 24 hours and 15 minutes before skin punch, P<0.05 vs vehicle, sodium salt) of the same molecule?
Its value is “promoted significant increase in wound closure on days 3, 5, 7, 13, 15 and 17; also recorded: promoted wound healing with significant reduction in CT50 value”.

What about the “The Closure of Wound (%), Individual Value, Day 1” value (500 mg/kg × 2 SC (−4 hr, −15 min), individual mice N 1-8) of the same molecule?
Its value is 0.0%.

And the “The Closure of Wound (%), Individual Value, Day 3” value [1]?
Its value is 27.9% and 13.0% and 31.4% and 13.4% and 40.5% and 11.7%.

And the “The Closure of Wound (%), Individual Value, Day 5” value [1]?
The value was 40.2% and 23.3% and 37.2% and 24.9% and 48.5% and 18.4%.

What about the “The Closure of Wound (%), Individual Value, Day 7” value [1] of the same molecule?
Its value is 48.0% and 32.9% and 41.9% and 36.2% and 62.4% and 34.6%.

And the “The Closure of Wound (%), Individual Value, Day 9” value [1]?
Its value is 59.0% and 49.2% and 60.3% and 52.9% and 76.3% and 43.0%.

And the “The Closure of Wound (%), Individual Value, Day 11” value [1]?
Its value is 65.3% and 68.7% and 73.5% and 77.1% and 79.6% and 66.1%.

And the “The Closure of Wound (%), Individual Value, Day 13” value [1]?
The value was 84.2% and 90.4% and 90.3% and 78.8% and 93.1% and 88.0%.

And the “The Closure of Wound (%), Individual Value, Day 15” value [1]?
The value was 93.4% and 94.6% and 97.2% and 100.0% (2×) and 97.6%.

And the “The Closure of Wound (%), Individual Value, Day 17” value [1]?
Its value is 96.7% and 100.0% (5×).

What about the “The Closure of Wound (%), Individual Value, Day 19” value [2] of the same molecule?
The value was 100.0%.

And the “The Closure of Wound (%), Individual Value, Day 21” value [2]?
Its value is 100.0%.

What about the “The Closure of Wound (%), Individual Value, Day 22” value [2] of the same molecule?
Its value is 100.0%.

And the “CT50 (Days), Individual Value” [1]?
The value was 8.0 days and 9.2 days and 7.7 days and 8.9 days and 5.8 days and 9.4 days.

What about the “Animal died (entry in individual wound-closure tables)” value (500 mg/kg × 2 SC (−4 hr, −15 min), mice N 7 and 8, Days 3-22, sodium salt) of the same molecule?
Its value is “died and Died”.

And the “The Closure of Wound (%) Day 1, Mean” value (500 mg/kg × 2 SC (−4 hr, −15 min before skin punch), group mean)?
The value was 0.0%.

And the “The Closure of Wound (%) Day 3, Mean” value [3]?
Its value is 23.0%.

And the “The Closure of Wound (%) Day 5, Mean” value [4]?
Its value is 32.1%.

And the “The Closure of Wound (%) Day 7, Mean” value [4]?
The value was 42.7%.

What about the “The Closure of Wound (%) Day 9, Mean” value [4] of the same molecule?
The value was 56.8%.

What about the “The Closure of Wound (%) Day 11, Mean” value [4] of the same molecule?
Its value is 71.7%.

And the “The Closure of Wound (%) Day 13, Mean” value [3]?
The value was 87.5%.

And the “The Closure of Wound (%) Day 15, Mean” value [3]?
Its value is 97.1%.

What about the “The Closure of Wound (%) Day 17, Mean” value [4] of the same molecule?
The value was 99.4%.

What about the “The Closure of Wound (%) Day 19, Mean” value [4] of the same molecule?
Its value is 100.0%.

And the “The Closure of Wound (%) Day 21, Mean” value [4]?
The value was 100.0%.

What about the “The Closure of Wound (%) Day 22, Mean” value [4] of the same molecule?
The value was 100.0%.

What about the “CT50 (Days), wound half-closure time, Mean” value [3] of the same molecule?
Its value is 8.2 ± 0.5 days and 8.2 days.

What about the “The Closure of Wound (%), Individual Value, Day 1” value [5] of the same molecule?
The value was 0.0%.

What about the “The Closure of Wound (%), Individual Value, Day 3” value [6] of the same molecule?
The value was 36.8% and 15.2% and 28.2% and 23.1% and 21.6% and 42.8% and 29.4% and 41.1%.

What about the “The Closure of Wound (%), Individual Value, Day 5” value [6] of the same molecule?
Its value is 51.5% and 35.7% and 39.1% and 45.1% and 37.7% and 35.6% and 40.9% and 44.4%.

What about the “The Closure of Wound (%), Individual Value, Day 7” value [6] of the same molecule?
The value was 49.7% and 47.0% and 45.6% and 56.9% and 46.8% and 60.4% and 52.0% and 55.8%.

What about the “The Closure of Wound (%), Individual Value, Day 9” value [6] of the same molecule?
Its value is 74.1% and 60.1% and 54.4% and 63.6% and 54.1% and 79.4% and 64.0% and 69.1%.

And the “The Closure of Wound (%), Individual Value, Day 11” value [6]?
Its value is 79.5% and 81.7% and 70.4% and 76.3% and 64.4% and 84.4% and 71.4% and 80.8%.

And the “The Closure of Wound (%), Individual Value, Day 13” value [6]?
The value was 84.4% and 90.6% and 83.7% and 89.6% and 85.8% and 95.8% and 80.7% and 95.6%.

What about the “The Closure of Wound (%), Individual Value, Day 15” value [6] of the same molecule?
Its value is 89.8% and 100.0% (5×) and 97.6% and 88.8%.

What about the “The Closure of Wound (%), Individual Value, Day 17” value [5] of the same molecule?
Its value is 100.0%.

And the “The Closure of Wound (%), Individual Value, Day 19” value [5]?
The value was 100.0%.

What about the “The Closure of Wound (%), Individual Value, Day 21” value [5] of the same molecule?
Its value is 100.0%.

What about the “The Closure of Wound (%), Individual Value, Day 22” value [6] of the same molecule?
The value was 100% (2×) and 100.0% (6×).

And the “CT50 (Days), Individual Value” [6]?
The value was 6.6 Days and 8.0 Days (2×) and 7.2 Days and 8.3 Days and 6.0 Days and 7.6 Days and 6.2 Days.

And the “The Closure of Wound (%) Day 1, Mean” value [7]?
Its value is 0.0%.

What about the “The Closure of Wound (%) Day 3, Mean” value [8] of the same molecule?
Its value is 29.8%.

And the “The Closure of Wound (%) Day 5, Mean” value [8]?
The value was 41.3%.

And the “The Closure of Wound (%) Day 7, Mean” value [8]?
Its value is 51.8%.

What about the “The Closure of Wound (%) Day 9, Mean” value [7] of the same molecule?
The value was 64.8%.

And the “The Closure of Wound (%) Day 11, Mean” value [7]?
The value was 76.1%.

And the “The Closure of Wound (%) Day 13, Mean” value [8]?
Its value is 88.3%.

What about the “The Closure of Wound (%) Day 15, Mean” value [8] of the same molecule?
Its value is 97.0%.

What about the “The Closure of Wound (%) Day 17, Mean” value [8] of the same molecule?
The value was 100.0%.

And the “The Closure of Wound (%) Day 19, Mean” value [7]?
Its value is 100.0%.

And the “The Closure of Wound (%) Day 21, Mean” value [7]?
Its value is 100.0%.

What about the “The Closure of Wound (%) Day 22, Mean” value [7] of the same molecule?
The value was 100.0%.

What about the “CT50 (Days), wound half-closure time, Mean” value [8] of the same molecule?
The value was 7.2 ± 0.3 days and 7.2 days.

And the “Animals died (mortality)” value (500 mg/kg × 2 SC given 4 hr and 15 min before skin punch (interval 3 hr 45 min), mice, cause of death not known, sodium salt)?
Its value is “two out of eight animals died; also recorded: (2/8 died)”.

What about the “Wound healing, percentage of wound closure (FIG. 1)” value (pre-treated 24 hour or 4 hour prior to wound vs placebo) of the same molecule?
The value was “significant improvement in wound healing”.
